From the supplement of paper PMC10627819

Experiments:
S. aureus Newman [1] = test: fitness (endpoint OD595 vs no drug) (fraction); higher = more growth
Procedure, shortened: (§1)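 Cultures at OD595 0.01 were dispensed into 384-well plates in TSB, LB Lennox or CY and incubated at 37 °C. Every 30 min for 14 h, OD595 was read and corrected by the first reading. Fitness is the optical density at entry into stationary phase relative to the robust mean of no-drug control wells, capped at 1.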

B. subtilis 168 [2] = test: as above; details: one replicate
Procedure, shortened: as §1

S. aureus Newman [3] = test: Bliss interaction score (quartile over a dose matrix) (fitness difference); higher = more antagonism (negative = synergy)
Procedure, shortened: (§2)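 Fitness was derived from optical density at entry into stationary phase, divided by the robust mean of the no-drug wells on the same plate. That reading was taken as OD595, and the ratio was capped at 1. Single-drug fitness was inferred from the combination data. The Bliss score, observed fitness minus the expected product of single-drug fitness, was summarised as quartiles over technical, biological and donor/recipient replicates.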

S. pneumoniae D39V [4] = test: as above
Procedure, shortened: as §2

B. subtilis 168 [5] = test: as above
Procedure, shortened: as §2

S. aureus DSM 20231 = test: as above
Procedure, shortened: as §2

S. pneumoniae D39V [6] = test: fitness (endpoint OD595 vs no drug) (fraction); higher = more growth
Procedure, shortened: as §1
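Throughout, for Bliss interaction score (quartile over a dose matrix): first quartile when negative (synergy) and third quartile when positive (antagonism).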

CO/N=C(\C(=O)N[C@@H]1C(=O)N2C(C(=O)O)=C(COC(N)=O)CS[C@H]12)c1ccco1 [Cefuroxime] + Cc1onc(-c2ccccc2)c1C(=O)N[C@@H]1C(=O)N2[C@@H]1SC(C)(C)[C@@H]2C(=O)O [Oxacillin]
fitness, S. aureus Newman [1], one replicate
Details	first compound 0.04875 µg/mL	first compound 0.0975 µg/mL	first compound 0.195 µg/mL
partner 0.0156 µg/mL	0.813	0.766	0.754
partner 0.0312 µg/mL	0.714	0.671	0.694
partner 0.0625 µg/mL	0.447	0.436	0.323

fitness, B. subtilis 168 [2]
Details	partner 0.002 µg/mL	partner 0.004 µg/mL	partner 0.0078 µg/mL	partner 0.008 µg/mL	partner 0.0155 µg/mL	partner 0.031 µg/mL	partner 0.075 µg/mL	partner 0.15 µg/mL	partner 0.3 µg/mL
first compound 0.04875 µg/mL	0.882	0.858	0.556	0.979	0.507	0.507	–	–	–
first compound 0.0975 µg/mL	0.734	0.866	0.506	0.881	0.454	0.486	–	–	–
first compound 0.195 µg/mL	0.739	0.705	0.375	0.717	0.344	0.367	0.0418	0.0405	0.0333
first compound 0.39 µg/mL	–	–	–	–	–	–	0.0582	0.0174	0.0294
first compound 0.78 µg/mL	–	–	–	–	–	–	0.0387	0.0089	0.0244
first compound 1.562 µg/mL	0.239	0.138	–	0.111	–	–	–	–	–
first compound 3.125 µg/mL	0.137	0.129	–	0.0905	–	–	–	–	–
first compound 6.25 µg/mL	0.11	0.1	–	0.0957	–	–	–	–	–

Details	Bliss interaction score
B. subtilis 168 [5]	-0.0556
S. aureus DSM 20231	0.0493
S. aureus Newman [3]	-0.0271
S. pneumoniae D39V [4]	-0.115

CN(C)c1cc(NC(=O)CNC(C)(C)C)c(O)c2c1C[C@H]1C[C@H]3[C@H](N(C)C)C(O)=C(C(N)=O)C(=O)[C@@]3(O)C(O)=C1C2=O [Tigecycline] + CN[C@H](CC(C)C)C(=O)N[C@H]1C(=O)N[C@@H](CC(N)=O)C(=O)N[C@H]2C(=O)N[C@H]3C(=O)N[C@H](C(=O)N[C@H](C(=O)O)c4cc(O)cc(O)c4-c4cc3ccc4O)[C@H](O)c3ccc(c(Cl)c3)Oc3cc2cc(c3O[C@@H]2O[C@H](CO)[C@@H](O)[C@H](O)[C@H]2O[C@H]2C[C@](C)(N)[C@H](O)[C@H](C)O2)Oc2ccc(cc2Cl)[C@H]1O [Vancomycin]
Details	fitness
S. aureus Newman [1], first compound 0.039 µg/mL, partner 0.1875 µg/mL	0.974
S. aureus Newman [1], first compound 0.039 µg/mL, partner 0.375 µg/mL	0.998
S. aureus Newman [1], first compound 0.039 µg/mL, partner 0.75 µg/mL	≥ 1
S. aureus Newman [1], first compound 0.078 µg/mL, partner 0.1875 µg/mL	≥ 1
S. aureus Newman [1], first compound 0.078 µg/mL, partner 0.375 µg/mL	0.99
S. aureus Newman [1], first compound 0.078 µg/mL, partner 0.75 µg/mL	0.987
S. aureus Newman [1], first compound 0.156 µg/mL, partner 0.1875 µg/mL	0.992
S. aureus Newman [1], first compound 0.156 µg/mL, partner 0.375 µg/mL	≥ 1
S. aureus Newman [1], first compound 0.156 µg/mL, partner 0.75 µg/mL	0.987
S. pneumoniae D39V [6], first compound 0.65 µg/mL, partner 0.03125 µg/mL	0.967
S. pneumoniae D39V [6], first compound 0.65 µg/mL, partner 0.0625 µg/mL	0.939
S. pneumoniae D39V [6], first compound 0.65 µg/mL, partner 0.125 µg/mL	0.871
S. pneumoniae D39V [6], first compound 0.65 µg/mL, partner 0.5 µg/mL	0.0606
S. pneumoniae D39V [6], first compound 1.3 µg/mL, partner 0.03125 µg/mL	0.989
S. pneumoniae D39V [6], first compound 1.3 µg/mL, partner 0.0625 µg/mL	0.937
S. pneumoniae D39V [6], first compound 1.3 µg/mL, partner 0.125 µg/mL	0.882
S. pneumoniae D39V [6], first compound 1.3 µg/mL, partner 0.5 µg/mL	0.0528
S. pneumoniae D39V [6], first compound 2.6 µg/mL, partner 0.03125 µg/mL	0.961
S. pneumoniae D39V [6], first compound 2.6 µg/mL, partner 0.0625 µg/mL	0.962
S. pneumoniae D39V [6], first compound 2.6 µg/mL, partner 0.125 µg/mL	0.918
S. pneumoniae D39V [6], first compound 2.6 µg/mL, partner 0.25 µg/mL	0.543
S. pneumoniae D39V [6], first compound 2.6 µg/mL, partner 0.5 µg/mL	0.0988

Details	Bliss interaction score
B. subtilis 168 [5]	0.0787
S. aureus DSM 20231	0.0923
S. aureus Newman [3]	0.0428
S. pneumoniae D39V [4]	0.0783
